According to patent US5061794A, “Cephalosporin derivatives, and antibacterial agents” (priority 1986, dated 1991):
Like-named read-outs stand apart in the source and are kept apart here.

Columns and labels:
[1] = tested on: E. coli CSH2 (RK1); assay: microbe, parasite or virus in culture; format: cell-based; conditions: 10^6 CFU/ml; for Minimum Inhibitory Concentration (MIC): *E. coli CSH2 (RK1), lactamase-producing strain; for MIC: Escherichia coli, 16 h, read-out: Minimum Inhibitory Concentration (MIC), *E. coli CSH2 (RK1), lactamase-producing strain
Summary of the method: (§1)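 First, strains were cultured overnight in Mueller Hinton broth. Next, one loopful went onto drug-containing Mueller Hinton agar (10^6 CFU/ml). Finally, after 37° C. incubation for 16 hours, MIC was determined in μg/ml.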

[2] = tested on: E. coli CSH(RE45); assay: microbe, parasite or virus in culture; format: cell-based; conditions: 10^6 CFU/ml; for Minimum Inhibitory Concentration (MIC): *E. coli CSH(RE45), lactamase-producing strain; for MIC: Escherichia coli, 16 h, read-out: Minimum Inhibitory Concentration (MIC), *E. coli CSH(RE45), lactamase-producing strain
Summary of the method: as §1

[3] = tested on: Ps. cepacia 23; assay: in vitro antibacterial activity, agar plate dilution method (MIC); format: cell-based, Pseudomonas cepacia; conditions: Ps. cepacia 23, 10^6 CFU/ml; for MIC: Burkholderia cepacia, 16 h, read-out: Minimum Inhibitory Concentration (MIC)
Summary of the method: as §1

[4] = tested on: A. calcoaceticus No. 4; assay: as above; format: cell-based, Acinetobacter calcoaceticus; conditions: 10^6 CFU/ml; for MIC: Acinetobacter calcoaceticus, NO.4, 16 h
Summary of the method: as §1

[5] = tested on: Ps. aeruginosa IF03445; assay: as above; format: cell-based, Pseudomonas aeruginosa; conditions: 10^6 CFU/ml; for Minimum Inhibitory Concentration (MIC): Ps. aeruginosa IF03445; for MIC: Pseudomonas aeruginosa, IF03445, 16 h, read-out: Minimum Inhibitory Concentration (MIC), Ps. aeruginosa IF03445
Summary of the method: as §1

[6] = tested on: Ps. aeruginosa AK 109; assay: as above; format: cell-based, Pseudomonas aeruginosa; conditions: Ps. aeruginosa AK 109, 10^6 CFU/ml; for MIC: Pseudomonas aeruginosa, AK109, 16 h, read-out: Minimum Inhibitory Concentration (MIC)
Summary of the method: as §1

[7] = tested on: Ps. aeruginosa AKR17; assay: as above; format: cell-based, Pseudomonas aeruginosa; conditions: for MIC: Pseudomonas aeruginosa, read-out: Minimum Inhibitory Concentration (MIC)
Summary of the method: as §1

[8] = tested on: E. cloacae 963; assay: as above; format: cell-based; conditions: 10^6 CFU/ml
Summary of the method: as §1

[9] = tested on: K. oxytoca GN10650; assay: as above; format: cell-based; conditions: 10^6 CFU/ml; for Minimum Inhibitory Concentration (MIC): *K. oxytoca GN10650, lactamase-producing strain; for MIC: Klebsiella oxytoca, GN10650, 16 h, read-out: Minimum Inhibitory Concentration (MIC), *K. oxytoca GN10650, lactamase-producing strain
Summary of the method: as §1

[10] = tested on: K. pneumoniae PCI-602; assay: as above; format: cell-based; conditions: 10^6 CFU/ml; for MIC: Klebsiella pneumoniae, PCI602, 16 h, read-out: Minimum Inhibitory Concentration (MIC), K. pneumoniae PCI-602
Summary of the method: as §1

[11] = tested on: S. aureus 209P NIHJ-JC1; assay: as above; format: cell-based; conditions: Staphylococcus aureus, 16 h
Summary of the method: as §1

[12] = tested on: K. pneumoniae No. 42; assay: as above; format: cell-based; conditions: 10^6 CFU/ml; for Minimum Inhibitory Concentration (MIC): *K. pneumoniae No. 42, lactamase-producing strain; for MIC: Klebsiella pneumoniae, NO.42, 16 h, read-out: Minimum Inhibitory Concentration (MIC), *K. pneumoniae No. 42, lactamase-producing strain
Summary of the method: as §1

[13] = tested on: M. morganii GN5407; assay: as above; format: cell-based; conditions: 10^6 CFU/ml; for Minimum Inhibitory Concentration (MIC): *M. morganii GN5407, lactamase-producing strain; for MIC: Morganella morganii, GN5407, 16 h, read-out: Minimum Inhibitory Concentration (MIC), *M. morganii GN5407, lactamase-producing strain
Summary of the method: as §1

[14] = tested on: E. coli NIHJ JC2; assay: as above; format: cell-based; conditions: for MIC: Escherichia coli, NIHJJC2, 16 h, read-out: Minimum Inhibitory Concentration (MIC), E. coli NIHJ JC2, 10^6 CFU/ml, 37° C.
Summary of the method: as §1

[15] = tested on: S. marcescens IAM 1184; assay: as above; format: cell-based; conditions: S. marcescens IAM 1184, 10^6 CFU/ml; for MIC: Serratia marcescens, IAM1184, 16 h, read-out: Minimum Inhibitory Concentration (MIC)
Summary of the method: as §1

[16] = tested on: E. cloacae Nek 39; assay: as above; format: cell-based; conditions: 10^6 CFU/ml; for Minimum Inhibitory Concentration (MIC): *E. cloacae Nek 39, lactamase-producing strain; for MIC: Enterobacter cloacae, NEK39, 16 h, read-out: Minimum Inhibitory Concentration (MIC), *E. cloacae Nek 39, lactamase-producing strain
Summary of the method: as §1

[17] = tested on: S. marcescens No. 16-2; assay: as above; format: cell-based; conditions: for MIC: Serratia marcescens, NO.162, 16 h
Summary of the method: as §1

[18] = tested on: E. coli GN5482; assay: as above; format: cell-based; conditions: for MIC: Escherichia coli, GN5482, 16 h, read-out: Minimum Inhibitory Concentration (MIC)
Summary of the method: as §1

[19] = tested on: P. vulgaris HX-19; assay: as above; format: cell-based; conditions: for MIC: Proteus vulgaris, HX19, 16 h, read-out: Minimum Inhibitory Concentration (MIC)
Summary of the method: as §1

[20] = tested on: P. vulgaris No. 33; assay: as above; format: cell-based; conditions: 10^6 CFU/ml; for Minimum Inhibitory Concentration (MIC): *P. vulgaris No. 33, lactamase-producing strain; for MIC: Proteus vulgaris, NO.33, 16 h, read-out: Minimum Inhibitory Concentration (MIC), *P. vulgaris No. 33, lactamase-producing strain
Summary of the method: as §1

[21] = A. calcoaceticus No. 4, read-out: Minimum Inhibitory Concentration (MIC)
[22] = Enterobacter cloacae, 963, 16 h, read-out: Minimum Inhibitory Concentration (MIC), E. cloacae 963
[23] = read-out: Minimum Inhibitory Concentration (MIC)
[24] = 16 h, Ps. aeruginosa AKR17, 10^6 CFU/ml
[25] = read-out: Minimum Inhibitory Concentration (MIC), S. aureus 209P NIHJ-JC1, 10^6 CFU/ml, 37° C., 16 hours

Nc1nc(/C(=N/OC(C(=O)O)c2ccccc2)C(=O)N[C@@H]2C(=O)N3C(C(=O)O)=C(CSc4nnc(-c5ccc(O)c(O)c5)o4)CS[C@H]23)cs1 (single isomer, unassigned) [Example 24 DB, disodium 78-[2-(2-aminothiazol-4-yl)-2-(α-carboxylatebenzyloxyimino)acetamido]-3-[5-(3,4-dihydroxyphenyl)-1,3,4-oxadiazol-2-yl]-thiomethyl-3-cephem-4-carboxylate]
Minimum Inhibitory Concentration (MIC) [1]: 0.0125 µg/mL
Minimum Inhibitory Concentration (MIC) [2]: 0.0125 µg/mL
Minimum Inhibitory Concentration (MIC) [3]: < 0.006 µg/mL
Minimum Inhibitory Concentration (MIC) ([4]; A. calcoaceticus No. 4): 0.05 µg/mL
Minimum Inhibitory Concentration (MIC) [5]: 1.56 µg/mL
Minimum Inhibitory Concentration (MIC) [6]: 0.2 µg/mL
Minimum Inhibitory Concentration (MIC) ([7]; Ps. aeruginosa AKR17, 10^6 CFU/ml): 0.78 µg/mL
MIC ([8]; Enterobacter cloacae, 16 h, E. cloacae 963, read-out: Minimum Inhibitory Concentration (MIC)): 0.1 µg/mL
Minimum Inhibitory Concentration (MIC) [9]: 0.025 µg/mL
Minimum Inhibitory Concentration (MIC) ([10]; K. pneumoniae PCI-602): < 0.006 µg/mL
MIC ([11]; S. aureus 209P NIHJ-JC1, 10^6 CFU/ml, 37° C., 16 hours, read-out: Minimum Inhibitory Concentration (MIC)): 25 µg/mL
Minimum Inhibitory Concentration (MIC) [12]: 0.025 µg/mL
Minimum Inhibitory Concentration (MIC) [13]: 0.2 µg/mL
Minimum Inhibitory Concentration (MIC) ([14]; E. coli NIHJ JC2, 10^6 CFU/ml, 37° C., 16 hours): 0.39 µg/mL
Minimum Inhibitory Concentration (MIC) [15]: 0.05 µg/mL
Minimum Inhibitory Concentration (MIC) [16]: 0.05 µg/mL
Minimum Inhibitory Concentration (MIC) ([17]; *S. marcescens No. 16-2, lactamase-producing strain, 10^6 CFU/ml): 0.78 µg/mL
Minimum Inhibitory Concentration (MIC) ([18]; *E. coli GN5482, lactamase-producing strain, 10^6 CFU/ml): 0.39 µg/mL
Minimum Inhibitory Concentration (MIC) ([19]; P. vulgaris HX-19, 10^6 CFU/ml): 0.05 µg/mL
Minimum Inhibitory Concentration (MIC) [20]: 0.1 µg/mL

Nc1nc(/C(=N/OC2(C(=O)O)CC2)C(=O)N[C@@H]2C(=O)N3C(C(=O)O)=C(CSc4nnc(-c5ccc(O)c(O)c5)o4)CS[C@H]23)cs1 [Ex. 12, disodium 7β-[2-(2-aminothiazol-4-yl)-2-(1-carboxylate-1-cyclopropoxyimino)acetamido]-3-[5-(3,4-dihydroxvphenyl)-1,3,4-oxadiazol-2-vl]thiomethyl-3-cephem-4-carboxylate]
MIC [1]: < 0.006 µg/mL
MIC [2]: < 0.006 µg/mL
MIC [3]: < 0.006 µg/mL
MIC [4, 21]: 0.05 µg/mL
MIC [5]: 0.39 µg/mL
MIC [6]: 0.2 µg/mL
MIC ([7]; AKR17, 16 h): 3.12 µg/mL
MIC [8, 22]: 0.05 µg/mL
MIC [9]: 0.025 µg/mL
MIC [10]: < 0.006 µg/mL
MIC [11, 23]: 12.5 µg/mL
MIC [12]: 0.025 µg/mL
MIC [13]: 0.025 µg/mL
MIC [14]: 0.05 µg/mL
MIC [15]: 0.0125 µg/mL
MIC [16]: 0.025 µg/mL
MIC ([17]; read-out: Minimum Inhibitory Concentration (MIC), *S. marcescens No. 16-2, lactamase-producing strain, 10^6 CFU/ml): 1.56 µg/mL
MIC [18]: 0.2 µg/mL
MIC ([19]; P. vulgaris HX-19, 10^6 CFU/ml): < 0.006 µg/mL
MIC [20]: 0.025 µg/mL

Nc1nc(/C(=N/OCc2ccc(O)c(O)c2)C(=O)N[C@@H]2C(=O)N3C(C(=O)O)=C(CSc4nnc(-c5ccc(O)c(O)c5)o4)CS[C@H]23)cs1 [Ex. 14, sodium 7β-[2-(2-aminothiazol-4-yl)-2-(3,4-dihydroxybenzyloxyimino)acetamido]-3-[5-(3,4-dihydroxyphenyl)-1,3,4-oxadiazol-2-yl]thiomethyl-3-cephem-4-carboxylate]
MIC [1]: 0.05 µg/mL
MIC [2]: 3.12 µg/mL
MIC [3]: 0.1 µg/mL
MIC ([4]; read-out: Minimum Inhibitory Concentration (MIC), A. calcoaceticus No. 4): 0.39 µg/mL
MIC [5]: 12.5 µg/mL
MIC [6]: 100 µg/mL
MIC [7, 24]: > 100 µg/mL
MIC [8, 22]: 0.39 µg/mL
MIC [9]: 6.25 µg/mL
MIC [10]: < 0.006 µg/mL
MIC [11, 25]: 1.56 µg/mL
MIC [12]: 0.39 µg/mL
MIC [13]: 0.1 µg/mL
MIC [14]: 0.39 µg/mL
MIC [15]: 0.1 µg/mL
MIC [16]: 1.56 µg/mL
MIC ([17]; *S. marcescens No. 16-2, lactamase-producing strain, 10^6 CFU/ml, read-out: Minimum Inhibitory Concentration (MIC)): 25 µg/mL
MIC [18]: 3.12 µg/mL
MIC ([19]; P. vulgaris HX-19, 10^6 CFU/ml): 0.05 µg/mL
MIC [20]: 0.2 µg/mL

Nc1nc(C(=NOC(C(=O)O)c2ccc(O)c(O)c2)C(=O)NC2C(=O)N3C(C(=O)O)=C(CSc4nnc(-c5ccc(O)c(O)c5)s4)CSC23)cs1 (single isomer, unassigned) [Example 38 DA, disodium 7β-{2-(2-aminothiazol-4-yl)-2-(α-carboxylate-3,4-dihydroxybenzyloxyimino)acetamido]-3-[5-(3,4-dihydroxyphenyl)-1,3,4-thiadiazol-2-yl]thiomethyl-3-cephem-4-carboxylate]
Minimum Inhibitory Concentration (MIC) [1]: < 0.006 µg/mL
Minimum Inhibitory Concentration (MIC) [2]: < 0.006 µg/mL
MIC [3]: < 0.006 µg/mL
MIC [4, 21]: 0.025 µg/mL
Minimum Inhibitory Concentration (MIC) [5]: 0.39 µg/mL
MIC [6]: 0.2 µg/mL
MIC [7, 24]: 0.1 µg/mL
MIC [8, 22]: 0.05 µg/mL
Minimum Inhibitory Concentration (MIC) [9]: 0.025 µg/mL
MIC [10]: < 0.006 µg/mL
MIC [11, 25]: 0.78 µg/mL
Minimum Inhibitory Concentration (MIC) [12]: 0.0125 µg/mL
Minimum Inhibitory Concentration (MIC) [13]: 0.05 µg/mL
MIC [14]: 0.2 µg/mL
Minimum Inhibitory Concentration (MIC) [15]: 0.025 µg/mL
Minimum Inhibitory Concentration (MIC) [16]: 0.1 µg/mL
MIC [17, 23]: 0.2 µg/mL
MIC [18]: 0.2 µg/mL
MIC [19]: 0.0125 µg/mL
Minimum Inhibitory Concentration (MIC) [20]: 0.025 µg/mL
